From paper PMC11324517 (Nature, 2024)
Residue numbers refer to the chain shown, from its start. Where “and” joins values, the source holds several entries; their conditions need not be identical. Identical values can stand only once. Entries after “also recorded” stand apart in the source; their conditions may differ. Like-named read-outs stand apart in the source and are kept apart here.

How the values were obtained:
[1] = biological target: ∆-hDAT D385A (Homo sapiens, UniProt Q01959, D385A/I248Y); details: MRS7292 30 µM; [3H]dopamine uptake, Figure 2d raw data
Method: (§1) Replicates containing 10 µM of GBR12909 were used to measure background. […] Uptake was quenched by adding 50 µl of ice-cold inhibition buffer.
(§2) Specific counts were obtained by subtracting background counts (averaged from technical triplicates) from total counts. […] Data were collected from three independent experiments (n = 3 biological replicates starting from transduction), each performed with three technical replicates.

[2] = biological target: ∆-hDAT V364I (Homo sapiens, UniProt Q01959, I248Y/V364I); details: [3H]dopamine uptake, Figure 2d raw data
Method: as §1, §2

[3] = biological target: ∆-hDAT D385N (Homo sapiens, UniProt Q01959, D385N/I248Y); details: D385N versus ∆-hDAT
Method: as §1, §2

[4] = biological target: ∆-hDAT (Homo sapiens, UniProt Q01959, I248Y); details: 10 µM MRS7292, [3H]DA 0.185 uM, background not subtracted
Method: (§3) HEK293 GnTI^− cells were transduced with Δ-hDAT and full-length hDAT P2 viruses, propagated in SF9 cells using standard methods as described in ‘Protein expression and purification’, at a cell density of 2.5 – 3.0 × 10^6 cells per ml, followed by incubation at 37 °C for 6 h. After 6 h, sodium butyrate was added to a final concentration of 10 mM, and the cells were transferred to 30 °C with 8% CO2 for 6 h. The transduced cells were seeded into 96-well poly-D-lysine coated Isoplates (Perkin Elmer) at a density of 100,000 cells per well. The plates were then incubated at 30 °C for 12–16 h before the uptake assay was initiated. The cells were initially washed with 37 °C uptake assay buffer composed of 25 mM HEPES pH 7.4, 120 mM NaCl, 5 mM KCl, 1.2 mM CaCl2, 1.2 mM MgSO4, 5 mM D-glucose, 1 mM ascorbic acid, and 1 µM Ro 41-0960, followed by incubation in 50 µl of the same buffer for 10 min. Replicates with 10 µM of GBR12909 in the uptake assay buffer were used to measure background. […] The uptake reaction was stopped by adding 100 µl of chilled inhibition buffer, uptake assay buffer supplemented with 2.5 µM GBR12909. Two consecutive washes with 100 µl of inhibition buffer were carried out, followed by resuspension of cells in 100 µl of 1% Triton X-100. Finally, 100 µl of liquid scintillation cocktail was added to each well and [^3H] counts were measured using a MicroBeta2 (Perkin Elmer). Background counts from three replicates were averaged and subtracted from total counts.

[5] = biological target: ∆-hDAT I390L (Homo sapiens, UniProt Q01959, I248Y/I390L); details: [3H]dopamine uptake
Method: as §1, §2

[6] = biological target: T1, ∆-hDAT W84A (Homo sapiens, UniProt Q01959, I248Y/W84A); details: for W84A total (raw [3H]dopamine uptake counts): Extended Data Fig 7c source data, replicates 1-3
T1 sequence (Q01959 57-620 W84A/I248Y limits assumed): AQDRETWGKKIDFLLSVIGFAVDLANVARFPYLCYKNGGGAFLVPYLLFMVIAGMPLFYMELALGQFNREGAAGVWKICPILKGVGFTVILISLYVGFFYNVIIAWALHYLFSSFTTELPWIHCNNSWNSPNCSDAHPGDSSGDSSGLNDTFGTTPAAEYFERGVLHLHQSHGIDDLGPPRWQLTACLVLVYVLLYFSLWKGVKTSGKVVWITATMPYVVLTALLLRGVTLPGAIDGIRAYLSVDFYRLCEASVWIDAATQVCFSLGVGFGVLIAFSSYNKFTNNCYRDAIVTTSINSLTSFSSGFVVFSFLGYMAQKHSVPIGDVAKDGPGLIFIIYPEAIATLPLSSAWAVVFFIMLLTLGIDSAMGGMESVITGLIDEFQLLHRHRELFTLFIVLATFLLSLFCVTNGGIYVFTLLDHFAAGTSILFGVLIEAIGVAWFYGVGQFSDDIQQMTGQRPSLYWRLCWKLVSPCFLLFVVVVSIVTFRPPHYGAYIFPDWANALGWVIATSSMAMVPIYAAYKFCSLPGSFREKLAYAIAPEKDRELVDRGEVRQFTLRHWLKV
Method: as §1, §2

[7] = biological target: ∆-hDAT Y394F (Homo sapiens, UniProt Q01959, I248Y/Y394F); details: for Y394F total (raw [3H]dopamine uptake counts): Extended Data Fig 7c source data, replicates 1-3
Method: as §1, §2

[8] = biological target: full-length hDAT (Homo sapiens, UniProt Q01959); details: background not subtracted
Method: as §3

[9] = biological target: T2, ∆-hDAT W84C (Homo sapiens, UniProt Q01959, I248Y/W84C); details: for W84C total (raw [3H]dopamine uptake counts): Extended Data Fig 7c source data, replicates 1-3
T2 sequence (Q01959 57-620 W84C/I248Y limits assumed): T1 sequence (Q01959 57-620 W84A/I248Y limits assumed) with A28C
Method: as §1, §2

[10] = biological target: ∆-hDAT V364I/I390L (Homo sapiens, UniProt Q01959, I248Y/I390L/V364I); details: MRS7292 10 µM; [3H]dopamine uptake, Figure 2d raw data
Chain of ∆-hDAT V364I/I390L (Q01959 57-620 I248Y/V364I/I390L limits assumed): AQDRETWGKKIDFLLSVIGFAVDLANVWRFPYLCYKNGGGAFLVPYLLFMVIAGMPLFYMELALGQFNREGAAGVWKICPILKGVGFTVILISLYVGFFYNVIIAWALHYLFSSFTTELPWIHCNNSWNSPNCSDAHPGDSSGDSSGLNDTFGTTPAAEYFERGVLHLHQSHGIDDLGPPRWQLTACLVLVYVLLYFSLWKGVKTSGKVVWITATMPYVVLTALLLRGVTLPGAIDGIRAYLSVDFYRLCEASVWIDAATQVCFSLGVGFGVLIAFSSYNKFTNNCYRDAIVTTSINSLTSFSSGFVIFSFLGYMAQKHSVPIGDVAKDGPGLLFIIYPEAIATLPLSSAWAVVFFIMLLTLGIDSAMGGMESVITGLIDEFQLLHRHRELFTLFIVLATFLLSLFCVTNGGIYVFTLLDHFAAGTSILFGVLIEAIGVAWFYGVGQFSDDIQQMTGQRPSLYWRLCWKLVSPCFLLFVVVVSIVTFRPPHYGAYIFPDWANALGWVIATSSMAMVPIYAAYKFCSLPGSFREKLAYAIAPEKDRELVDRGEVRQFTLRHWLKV
Method: as §1, §2

Chain of ∆-hDAT D385A (Q01959 57-620 I248Y/D385A limits assumed): as the sequence (Q01959 57-620 I248Y/V364I/I390L limits assumed) above, with I308V, D329A, L334I counted along it
Chain of full-length hDAT (Q01959 whole entry): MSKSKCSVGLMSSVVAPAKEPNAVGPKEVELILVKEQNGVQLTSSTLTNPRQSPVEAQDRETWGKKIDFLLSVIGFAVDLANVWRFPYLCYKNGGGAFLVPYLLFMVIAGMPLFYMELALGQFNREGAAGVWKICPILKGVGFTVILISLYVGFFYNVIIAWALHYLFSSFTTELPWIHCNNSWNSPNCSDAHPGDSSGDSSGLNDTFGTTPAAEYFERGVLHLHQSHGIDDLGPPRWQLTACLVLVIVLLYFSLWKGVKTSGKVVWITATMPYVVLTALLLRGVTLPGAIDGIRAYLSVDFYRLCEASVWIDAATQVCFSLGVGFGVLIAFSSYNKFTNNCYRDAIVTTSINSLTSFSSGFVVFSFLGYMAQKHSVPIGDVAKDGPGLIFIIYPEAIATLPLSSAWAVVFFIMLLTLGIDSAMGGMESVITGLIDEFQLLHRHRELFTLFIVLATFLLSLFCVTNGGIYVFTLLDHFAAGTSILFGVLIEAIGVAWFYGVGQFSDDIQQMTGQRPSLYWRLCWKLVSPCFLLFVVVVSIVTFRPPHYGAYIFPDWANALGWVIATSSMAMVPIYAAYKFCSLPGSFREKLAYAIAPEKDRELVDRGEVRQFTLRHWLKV
Chain of ∆-hDAT I390L (Q01959 57-620 I248Y/I390L limits assumed): as the sequence (Q01959 57-620 I248Y/V364I/I390L limits assumed) above, with I308V counted along it
Chain of ∆-hDAT (Q01959 57-620 I248Y limits assumed): as the sequence (Q01959 57-620 I248Y/V364I/I390L limits assumed) above, with I308V, L334I counted along it
Chain of ∆-hDAT D385N (Q01959 57-620 I248Y/D385N limits assumed): as the sequence (Q01959 57-620 I248Y/V364I/I390L limits assumed) above, with I308V, D329N, L334I counted along it
Chain of ∆-hDAT Y394F (Q01959 57-620 I248Y/Y394F limits assumed): as the sequence (Q01959 57-620 I248Y/V364I/I390L limits assumed) above, with I308V, L334I, Y338F counted along it
Chain of ∆-hDAT V364I (Q01959 57-620 I248Y/V364I limits assumed): as the sequence (Q01959 57-620 I248Y/V364I/I390L limits assumed) above, with L334I counted along it

CNc1nc(C#Cc2ccc(Cl)s2)nc2c1ncn2[C@H]1[C@H](O)[C@H](O)[C@]2(C(=O)OC)C[C@H]12 [MRS7292]
D385A total [1]: 286 and 316 and 337 and 362 and 408 and 403 and 257 and 320 | V364I total ([2]; MRS7292 1e-6 µM): 5751 and 5593 and 5760 and 5223 and 5698 and 5483 and 5457 and 5433 | V364I total ([2]; MRS7292 10 µM): 65 and 56 and 61 and 57 and 59 and 73 and 84 and 89 | V364I total ([2]; MRS7292 30 µM): 24 and 25 and 29 and 37 and 23 and 36 and 26 | effect of mutation on potency of MRS7292 (inhibition of dopamine uptake) [3]: retained potency; also recorded: potency of MRS7292 was maintained; also recorded: little effect | [3H]DA Uptake - Δ-hDAT, total counts - 10 µM MRS7292 [4]: 20 cpm and 17 cpm and 15 cpm and 19 cpm and 12 cpm and 22 cpm | change in IC50 of MRS7292 versus ∆-hDAT ([5]; I390L mutant): modest increase in the IC50 value; also recorded: increased IC50 | I390L total counts ([5]; MRS7292 30 µM, Figure 2d raw data): 109 counts and 108 counts and 83 counts and 89 counts and 68 counts and 75 counts and 87 counts and 88 counts | W84A total (raw [3H]dopamine uptake counts) ([6]; MRS7292 1e-6 µM): 4895 and 4792 and 4802 and 4600 and 4953 and 4373 and 5070 and 4982 and 5054 | W84A total (raw [3H]dopamine uptake counts) ([6]; MRS7292 0.041 µM): 4749 and 4230 and 4559 and 4747 and 4675 and 5103 and 5266 and 5201 and 5101 | W84A total (raw [3H]dopamine uptake counts) ([6]; MRS7292 0.123 µM): 4930 and 5121 and 4987 and 4751 and 4624 and 4813 and 5010 and 4838 and 4937 | W84A total (raw [3H]dopamine uptake counts) ([6]; MRS7292 0.37 µM): 4894 and 4668 and 4952 and 4517 and 4587 and 4491 and 5700 and 5202 and 4820 | W84A total (raw [3H]dopamine uptake counts) ([6]; MRS7292 1.11 µM): 4984 and 5198 and 4980 and 4949 and 4430 and 4563 and 5130 and 4679 and 4795 | W84A total (raw [3H]dopamine uptake counts) ([6]; MRS7292 3.33 µM): 4301 and 4523 and 4569 and 4697 and 4581 and 4993 and 4757 and 5251 and 4774 | W84A total (raw [3H]dopamine uptake counts) ([6]; MRS7292 10 µM): 4768 and 4277 and 4629 and 4852 and 4916 and 4947 and 5164 and 4713 and 5124 | W84A total (raw [3H]dopamine uptake counts) ([6]; MRS7292 30 µM): 3395 and 3824 and 4400 and 4392 and 4159 and 3949 and 4924 and 4868 and 4552 | effect of mutation on potency of MRS7292 (inhibition of dopamine uptake) ([6]; W84A versus ∆-hDAT): severely compromises the potency; also recorded: severe loss of MRS7292 activity | Y394F total (raw [3H]dopamine uptake counts) ([7]; MRS7292 1e-6 µM): 1962 and 2141 and 2109 and 2218 and 1876 and 2149 and 2315 and 2380 and 2515 | Y394F total (raw [3H]dopamine uptake counts) ([7]; MRS7292 0.041 µM): 2021 and 1947 and 2451 and 1672 and 1475 and 1990 and 5167 and 4746 | Y394F total (raw [3H]dopamine uptake counts) ([7]; MRS7292 0.123 µM): 2135 and 2187 and 2249 and 1538 and 1496 and 1463 and 3048 and 2825 and 2648 | Y394F total (raw [3H]dopamine uptake counts) ([7]; MRS7292 0.37 µM): 2258 and 2255 and 2215 and 1771 and 1434 and 1467 and 2327 and 2753 and 2672 | Y394F total (raw [3H]dopamine uptake counts) ([7]; MRS7292 1.11 µM): 1683 and 2000 and 1961 and 1802 and 1518 and 1933 and 2789 and 2557 and 2651 | Y394F total (raw [3H]dopamine uptake counts) ([7]; MRS7292 3.33 µM): 2058 and 2080 and 2545 and 1969 and 2086 and 2231 and 2762 and 2184 and 1914 | Y394F total (raw [3H]dopamine uptake counts) ([7]; MRS7292 10 µM): 2191 and 2728 and 2379 and 1871 and 1698 and 1883 and 2721 and 2825 and 2576 | Y394F total (raw [3H]dopamine uptake counts) ([7]; MRS7292 30 µM): 1926 and 2280 and 2146 and 1689 and 1287 and 1345 and 2421 and 2231 and 2505 | effect of mutation on potency of MRS7292 (inhibition of dopamine uptake) ([7]; Y394F versus ∆-hDAT): diminishes the potency; also recorded: severe loss of MRS7292 activity | [3H]DA Uptake - Full length hDAT, total counts - 10 µM MRS7292 ([8]; 10 µM MRS7292, [3H]DA 0.0068 uM): 10 cpm and 11 cpm and 8 cpm and 14 cpm and 9 cpm and 16 cpm | [3H]DA Uptake - Full length hDAT, total counts - 10 µM MRS7292 ([8]; 10 µM MRS7292, [3H]DA 0.061 uM): 13 cpm and 18 cpm and 14 cpm and 10 cpm and 16 cpm and 15 cpm and 19 cpm and 17 cpm | [3H]DA Uptake - Full length hDAT, total counts - 10 µM MRS7292 ([8]; 10 µM MRS7292, [3H]DA 0.185 uM): 25 cpm and 15 cpm and 20 cpm and 27 cpm and 21 cpm and 23 cpm and 22 cpm | [3H]DA Uptake - Full length hDAT, total counts - 10 µM MRS7292 ([8]; 10 µM MRS7292, [3H]DA 1.66 uM): 65 cpm and 83 cpm and 90 cpm and 75 cpm and 88 cpm and 55 cpm and 51 cpm and 66 cpm | W84C total (raw [3H]dopamine uptake counts) ([9]; MRS7292 1e-6 µM): 4594 and 4467 and 4710 and 3850 and 4193 and 4029 and 4760 and 5939 and 5408 | W84C total (raw [3H]dopamine uptake counts) ([9]; MRS7292 0.041 µM): 5542 and 4901 and 4879 and 3714 and 3791 and 3749 and 5161 and 5312 and 5150 | W84C total (raw [3H]dopamine uptake counts) ([9]; MRS7292 0.123 µM): 5015 and 4917 and 5068 and 3749 and 3676 and 3489 and 6082 and 6141 and 5806 | W84C total (raw [3H]dopamine uptake counts) ([9]; MRS7292 0.37 µM): 4864 and 5475 and 5004 and 3395 and 4058 and 4217 and 6996 and 6040 and 6103 | W84C total (raw [3H]dopamine uptake counts) ([9]; MRS7292 1.11 µM): 4560 and 4192 and 4804 and 2868 and 3597 and 3884 and 6157 and 6005 | W84C total (raw [3H]dopamine uptake counts) ([9]; MRS7292 3.33 µM): 5290 and 5001 and 5041 and 3941 and 4001 and 3991 and 5807 and 6342 and 6018 | W84C total (raw [3H]dopamine uptake counts) ([9]; MRS7292 10 µM): 5439 and 5725 and 4868 and 3830 and 4200 and 4303 and 5849 and 6416 and 6207 | W84C total (raw [3H]dopamine uptake counts) ([9]; MRS7292 30 µM): 4716 and 4588 and 4467 and 3448 and 3565 and 3579 and 4954 and 3057 and 4610 | effect of mutation on potency of MRS7292 (inhibition of dopamine uptake) ([9]; W84C versus ∆-hDAT): severely compromises the potency; also recorded: severe loss of MRS7292 activity | I390L-V364I total [10]: 85 and 69 and 75 and 62 and 48 and 60 and 76 and 66
